Results reported in ChEMBL document CHEMBL6074641, “Polypharmacological Drug Design Guided by Integrating Phenotypic and Restricted Fragment Docking Strategies” (J Med Chem, 2024).
Activity calls are given as the source filed them. The rule behind the calls is not given here.

Key:
[1] = target: T1, Receptor-interacting serine/threonine-protein kinase 1 (Homo sapiens) (UniProt Q13546); assay: (§1) Inhibition of recombinant RIPK1 (1 to 327 residues) (unknown origin) expressed in Escherichia coli BL21([…]) using MBP as substrate preincubated for 15 mins followed by substrate and ATP addition and measured after 90 mins by ADP-Glo luminescence […] assay; conditions: time 105.0 min
T1 sequence (whole entry): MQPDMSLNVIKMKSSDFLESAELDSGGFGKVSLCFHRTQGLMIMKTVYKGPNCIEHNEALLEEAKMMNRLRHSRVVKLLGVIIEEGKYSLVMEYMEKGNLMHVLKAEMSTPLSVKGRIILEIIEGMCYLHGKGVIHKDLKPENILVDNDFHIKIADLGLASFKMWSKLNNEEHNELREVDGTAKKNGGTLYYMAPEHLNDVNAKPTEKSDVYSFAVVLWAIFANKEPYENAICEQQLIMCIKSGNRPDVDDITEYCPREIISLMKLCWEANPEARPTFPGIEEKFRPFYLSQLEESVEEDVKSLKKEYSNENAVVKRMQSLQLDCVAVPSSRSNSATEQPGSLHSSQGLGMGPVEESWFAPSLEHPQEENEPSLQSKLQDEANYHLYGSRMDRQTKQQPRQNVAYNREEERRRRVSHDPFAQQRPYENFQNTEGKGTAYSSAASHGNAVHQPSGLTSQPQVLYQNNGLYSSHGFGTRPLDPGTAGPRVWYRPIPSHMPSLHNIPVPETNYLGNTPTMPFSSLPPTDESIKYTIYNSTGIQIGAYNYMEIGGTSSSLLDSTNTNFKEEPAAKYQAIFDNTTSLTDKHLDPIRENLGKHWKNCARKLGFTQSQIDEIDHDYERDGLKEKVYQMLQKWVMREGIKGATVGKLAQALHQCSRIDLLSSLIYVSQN

BV-2 [2] = assay: Anti-necroptosis activity in LPS/zVAD stimulated mouse BV-2 cells preincubated with LPS for 11 hrs followed by compound addition for 1 hr and exposed to zVAD-fmk for another 24 hrs by Cellcounting-Lite 2.0 luminescent cell viability assay; conditions: time 25.0 hrs
Mus musculus [3] = assay: Anti-alzheimer activity against 5 month old APP/PS1 transgenic mouse model assessed as decrease in anxiety level at 10 mg/kg, po administered 4 times per week for 4 weeks; type: functional, organism-based
Mus musculus [4] = assay: Anti-alzheimer activity against 5 month old APP/PS1 transgenic mouse model assessed as decrease in restlessness at 10 mg/kg, po administered 4 times per week for 4 weeks; type: functional, organism-based
Mus musculus [5] = assay: Anti-alzheimer activity against 8 month old 3xTg mouse model assessed as decrease in anxiety level at 10 mg/kg, po administered 4 times per week for 4 weeks; type: functional, organism-based
Mus musculus [6] = assay: Anti-alzheimer activity against 8 month old 3xTg mouse model assessed as decrease in restlessness at 10 mg/kg, po administered 4 times per week for 4 weeks; type: functional, organism-based
BV-2 [7] = assay: (§2) Synergistic anti-necroptosis activity in LPS/zVAD stimulated mouse BV-2 cells preincubated with LPS for 11 hrs followed by compound addition for 1 hr and exposed to zVAD-fmk for another 24 hrs in presence of crizotinib by Cellcounting-Lite 2.0 luminescent cell viability assay; type: functional, cell-based; conditions: time 25.0 hrs
BV-2 [8] = assay: as §2, with “cells at 100 nM” for “cells”, “of PF-06260933 and” for “of”; type: functional, cell-based; conditions: time 25.0 hrs
BV-2 [9] = assay: as §2, with “cells at 100 nM” for “cells”, “PF-06260933 and entrectinib” for “crizotinib”; type: functional, cell-based; conditions: time 25.0 hrs
BV-2 [10] = assay: Synergistic anti-necroptosis activity in LPS/zVAD stimulated mouse BV-2 cells at 100 nM preincubated with LPS for 11 hrs followed by compound addition for 1 hr and exposed to zVAD-fmk for another 24 hrs in presence of PF-06260933 and TAE684 by Cellcounting-Lite 2.0 luminescent cell viability assay; type: functional, cell-based; conditions: time 25.0 hrs
BV-2 [11] = assay: Synergistic anti-necroptosis activity in LPS/zVAD stimulated mouse BV-2 cells at 100 nM preincubated with LPS for 11 hrs followed by compound addition for 1 hr and exposed to zVAD-fmk for another 24 hrs in presence of PF-06260933 and LDK378 by Cellcounting-Lite 2.0 luminescent cell viability assay; type: functional, cell-based; conditions: time 25.0 hrs
BV-2 [12] = assay: Downregulation of p-RIPK1 expression in mouse BV-2 cells at 100 nM in presence of PF-06260933 and crizotinib by Western blotting analysis; type: functional, cell-based
BV-2 [13] = assay: Downregulation of p-MLKL expression in mouse BV-2 cells at 100 nM in presence of PF-06260933 and crizotinib by Western blotting analysis; type: functional, cell-based
BV-2 [14] = assay: Anti-necroptosis activity in LPS/zVAD stimulated mouse BV-2 cells assessed as inhibition of extranuclear p65 at 100 nM; type: functional, cell-based
BV-2 [15] = assay: Anti-necroptosis activity in LPS/zVAD stimulated mouse BV-2 cells assessed as inhibition of p65 nuclear translocation at 100 nM; type: functional, cell-based
BV-2 [16] = assay: Anti-necroptosis activity in LPS/zVAD stimulated mouse BV-2 cells assessed as inhibition of p65 activation at 100 nM in presence of PF-06260933 and crizotinib; type: functional; parameters: scale not given: the % may be the effect or the level left
BV-2 [17] = assay: Anti-necroptosis activity in LPS/zVAD stimulated mouse BV-2 cells assessed as inhibition of p65 nuclear translocation at 100 nM in presence of PF-06260933 and crizotinib; type: functional; parameters: scale not given: the % may be the effect or the level left
BV-2 [18] = assay: Anti-inflammatory activity against LPS/zVAD treated mouse BV-2 cells assessed as decrease in TNFalpha release at 100 nM in presence of PF-06260933 and crizotinib by ELISA; type: functional, cell-based
BV-2 [19] = assay: Anti-inflammatory activity against LPS/zVAD treated mouse BV-2 cells assessed as decrease in IL-1beta release at 100 nM in presence of PF-06260933 and crizotinib by ELISA; type: functional, cell-based
[20] = target: T2, Receptor-interacting serine/threonine-protein kinase 1 (Homo sapiens, UniProt Q13546); assay: as §1
T2 sequence (Q13546 whole entry): T1 sequence (whole entry)

[21] = target: ALK tyrosine kinase receptor (Homo sapiens, UniProt Q9UM73); assay: Inhibition of recombinant ALK (1060 to end residues) (unknown origin) expressed in Escherichia coli […] using IGF1Rtide as substrate preincubated for 15 mins followed by substrate and ATP addition and measured after 90 mins by ADP-Glo luminescence […] assay
BV-2 [22] = assay: cells; conditions: Mus musculus
[23] = target: Mitogen-activated protein kinase kinase kinase kinase 4 (Homo sapiens, UniProt O95819); assay: Inhibition of recombinant MAP4K4 (1 to 328 residues) (unknown origin) expressed in Escherichia coli BL21([…]) using MBP as substrate preincubated for 15 mins followed by substrate and ATP addition and measured after 90 mins by ADP-Glo luminescence […] assay
BV-2 [24] = assay: Anti-necroptosis activity in LPS/zVAD stimulated mouse BV-2 cells at 10 uM preincubated with LPS for 11 hrs followed by compound addition for 1 hr and exposed to zVAD-fmk for another 24 hrs by Cellcounting-Lite 2.0 luminescent cell viability assay; type: functional, cell-based; conditions: time 25.0 hrs
BV-2 [25] = assay: Synergistic anti-necroptosis activity in LPS/zVAD stimulated mouse BV-2 cells preincubated with LPS for 11 hrs followed by compound addition for 1 hr and exposed to zVAD-fmk for another 24 hrs in presence of Nec-1 by Cellcounting-Lite 2.0 luminescent cell viability assay; type: functional, cell-based; conditions: time 25.0 hrs
BV-2 [26] = assay: Cytotoxicity against mouse BV-2 cells; type: toxicity, cell-based

Chain of ALK tyrosine kinase receptor (Q9UM73 whole entry): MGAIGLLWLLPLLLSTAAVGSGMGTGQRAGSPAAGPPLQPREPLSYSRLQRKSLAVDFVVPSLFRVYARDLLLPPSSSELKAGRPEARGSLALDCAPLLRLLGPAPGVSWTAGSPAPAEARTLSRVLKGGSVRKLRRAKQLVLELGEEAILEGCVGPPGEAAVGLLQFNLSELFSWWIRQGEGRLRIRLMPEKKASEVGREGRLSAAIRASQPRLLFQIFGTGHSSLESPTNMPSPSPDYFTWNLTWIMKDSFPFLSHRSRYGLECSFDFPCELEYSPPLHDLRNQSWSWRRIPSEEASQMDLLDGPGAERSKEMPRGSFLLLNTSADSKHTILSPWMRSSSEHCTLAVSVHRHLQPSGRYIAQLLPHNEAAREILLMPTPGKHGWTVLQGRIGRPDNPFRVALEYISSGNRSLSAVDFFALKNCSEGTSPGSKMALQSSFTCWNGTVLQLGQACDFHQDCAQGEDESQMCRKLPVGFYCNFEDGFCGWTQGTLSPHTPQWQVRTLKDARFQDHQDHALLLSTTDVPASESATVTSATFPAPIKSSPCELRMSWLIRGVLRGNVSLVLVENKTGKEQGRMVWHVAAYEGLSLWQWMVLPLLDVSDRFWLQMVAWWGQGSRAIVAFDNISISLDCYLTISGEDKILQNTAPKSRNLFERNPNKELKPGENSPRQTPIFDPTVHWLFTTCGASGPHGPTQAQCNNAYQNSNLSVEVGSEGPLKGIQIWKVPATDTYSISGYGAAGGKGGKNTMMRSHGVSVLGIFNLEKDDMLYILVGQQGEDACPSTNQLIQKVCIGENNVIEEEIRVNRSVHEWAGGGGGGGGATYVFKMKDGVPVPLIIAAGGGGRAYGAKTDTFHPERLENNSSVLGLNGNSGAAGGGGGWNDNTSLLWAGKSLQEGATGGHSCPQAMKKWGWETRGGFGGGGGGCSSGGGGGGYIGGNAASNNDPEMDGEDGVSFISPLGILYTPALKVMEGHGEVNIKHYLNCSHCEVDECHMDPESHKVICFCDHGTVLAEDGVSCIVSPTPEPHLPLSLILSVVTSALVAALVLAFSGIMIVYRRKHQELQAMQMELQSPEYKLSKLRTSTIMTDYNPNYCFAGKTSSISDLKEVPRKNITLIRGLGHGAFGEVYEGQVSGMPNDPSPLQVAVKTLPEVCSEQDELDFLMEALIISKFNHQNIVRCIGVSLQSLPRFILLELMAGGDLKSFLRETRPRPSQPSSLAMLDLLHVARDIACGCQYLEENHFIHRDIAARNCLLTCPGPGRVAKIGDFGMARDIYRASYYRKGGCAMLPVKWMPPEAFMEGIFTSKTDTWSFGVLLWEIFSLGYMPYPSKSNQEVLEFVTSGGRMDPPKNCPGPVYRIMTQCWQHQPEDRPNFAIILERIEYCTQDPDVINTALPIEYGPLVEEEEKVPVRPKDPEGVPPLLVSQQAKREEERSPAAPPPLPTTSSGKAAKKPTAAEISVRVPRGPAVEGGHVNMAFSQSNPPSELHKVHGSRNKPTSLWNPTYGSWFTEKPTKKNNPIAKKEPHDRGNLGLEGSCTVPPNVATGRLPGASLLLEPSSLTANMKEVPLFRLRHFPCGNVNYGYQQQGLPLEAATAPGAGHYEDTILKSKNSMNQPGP
Chain of Mitogen-activated protein kinase kinase kinase kinase 4 (O95819 whole entry, the tested form may be a part): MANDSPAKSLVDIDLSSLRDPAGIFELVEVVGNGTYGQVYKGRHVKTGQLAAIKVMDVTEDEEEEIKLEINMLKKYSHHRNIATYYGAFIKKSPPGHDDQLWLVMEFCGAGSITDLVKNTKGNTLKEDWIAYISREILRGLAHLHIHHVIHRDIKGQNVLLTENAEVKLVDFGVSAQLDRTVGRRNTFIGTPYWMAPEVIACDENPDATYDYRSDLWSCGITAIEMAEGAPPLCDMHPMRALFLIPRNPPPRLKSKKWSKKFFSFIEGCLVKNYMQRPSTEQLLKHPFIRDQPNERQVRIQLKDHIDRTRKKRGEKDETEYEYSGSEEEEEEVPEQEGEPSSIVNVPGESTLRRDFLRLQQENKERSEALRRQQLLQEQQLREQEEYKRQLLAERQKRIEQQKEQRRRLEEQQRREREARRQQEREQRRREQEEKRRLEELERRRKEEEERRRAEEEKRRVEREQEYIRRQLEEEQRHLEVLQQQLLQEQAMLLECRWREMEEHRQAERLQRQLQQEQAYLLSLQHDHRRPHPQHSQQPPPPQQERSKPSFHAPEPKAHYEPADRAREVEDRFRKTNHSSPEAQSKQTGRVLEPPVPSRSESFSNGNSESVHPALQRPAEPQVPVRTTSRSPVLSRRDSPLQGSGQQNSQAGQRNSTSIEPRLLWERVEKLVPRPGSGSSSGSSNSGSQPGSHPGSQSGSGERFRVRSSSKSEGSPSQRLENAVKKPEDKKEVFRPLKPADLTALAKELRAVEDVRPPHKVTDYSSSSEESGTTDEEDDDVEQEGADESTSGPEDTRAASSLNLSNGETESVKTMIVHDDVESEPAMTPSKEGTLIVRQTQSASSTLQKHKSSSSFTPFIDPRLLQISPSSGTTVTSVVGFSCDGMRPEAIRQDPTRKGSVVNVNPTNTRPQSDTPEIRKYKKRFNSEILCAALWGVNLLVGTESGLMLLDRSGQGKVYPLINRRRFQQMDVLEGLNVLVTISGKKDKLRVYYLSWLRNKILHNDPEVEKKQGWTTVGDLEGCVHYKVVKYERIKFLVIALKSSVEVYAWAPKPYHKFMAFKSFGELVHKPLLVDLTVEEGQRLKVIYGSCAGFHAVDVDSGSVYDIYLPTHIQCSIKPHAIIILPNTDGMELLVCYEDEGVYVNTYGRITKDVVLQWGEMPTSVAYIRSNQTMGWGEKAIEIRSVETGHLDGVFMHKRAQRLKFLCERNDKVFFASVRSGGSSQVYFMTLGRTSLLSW

Compound | IC50 [20] [nM] | IC50 [21] [nM] | EC50 (BV-2 [22]) [nM] | IC50 [23] [nM] | also measured
Cc1cc(C)c(C(N)=O)c(Nc2ccc(Cl)cc2)n1 |  |  |  |  | Inhibition activity call [1]: Active; Activity (BV-2 [2]): Active
CN1C(=O)C(Cc2c[nH]c3ccccc23)NC1=S (stereo unspecified) [NECROSTATIN] |  |  |  |  | Activity (Mus musculus [3]): Active; Activity (Mus musculus [4]): Active; Activity (Mus musculus [5]): Active; Activity (Mus musculus [6]): Active; Activity (BV-2 [7]): inactive; Activity (BV-2 [8]): Active; Activity (BV-2 [9]): Active; Activity (BV-2 [10]): Active; Activity (BV-2 [11]): Active; Activity (BV-2 [12]): Active; Activity (BV-2 [13]): Active; Activity (BV-2 [14]): inactive; Activity (BV-2 [15]): Active; Activity (BV-2 [16]): 100%; Activity (BV-2 [17]): 100%; Activity (BV-2 [18]): Active; Activity (BV-2 [19]): Active
Cc1cc(F)cc(Nc2ncc(Nc3ccc(C(C)(C)C)cc3)cc2C(N)=O)c1 | 500 | 830 | 440 |  | 
COc1ccc(Nc2cnc(Nc3cc(C)cc(F)c3)c(C(N)=O)c2)cc1 | 300 | 1550 | 140 | 1810 | 
Cc1cc(F)cc(Nc2ncc(Nc3ccc(C)c(C)c3)cc2C(N)=O)c1 | 1570 | 1050 | > 3000 | 1380 | 
Cc1cc(C)cc(Nc2cnc(Nc3cc(C)cc(F)c3)c(C(N)=O)c2)c1 | 430 | 210 |  | 930 | 
Cc1cc(F)cc(Nc2ncccc2C(N)=O)c1 | 240 | 610 | 480 | 660 | 
COc1ccc(Nc2cnc(Nc3cc(C)cc(F)c3)c(C(N)=O)c2)c(C)c1 |  |  | > 3000 | 9260 | 
Cc1cc(F)cc(Nc2ncc(Nc3ccccc3Cl)cc2C(N)=O)c1 | 1300 | 490 | > 3000 | 760 | 
Cc1cc(F)cc(Nc2ncc(Nc3ccccc3)cc2C(N)=O)c1 | 380 | 1270 | 370 | 760 | 
Cc1c(Cc2ccccc2)sc(NC(=O)c2ccccc2)c1C(N)=O |  |  |  |  | Inhibition activity call [1]: Active; Activity (BV-2 [2]): Active
C=Cc1ccc(Nc2cnc(Nc3cc(C)cc(F)c3)c(C(N)=O)c2)cc1 | 480 |  | 140 | 350 | 
Cc1cc(F)cc(Nc2ncc(Nc3ccccc3C)cc2C(N)=O)c1 |  |  | > 3000 | 970 | 
Cc1cc(F)cc(Nc2ncc(Nc3ccc(C#N)cc3)cc2C(N)=O)c1 | 350 | 3020 | 240 | 440 | 
Cc1cc(F)cc(Nc2ncc(Nc3ccc4c(c3)CCCC4)cc2C(N)=O)c1 | 690 |  | 200 | 2260 | 
Nc1ccc(-c2cnc(N)c(-c3ccc(Cl)cc3)c2)cn1 |  |  |  |  | Activity (BV-2 [24]): Active; Activity Similar To Nec-1; Activity (BV-2 [25]): inactive; Activity (BV-2 [7]): inactive
Cc1cc(F)cc(Nc2ncc(Nc3ccc(Oc4ccccc4)cc3)cc2C(N)=O)c1 | 870 | 3790 | 2660 | 4290 | 
Nc1cc(-c2ccc(Br)cc2)nn1Cc1ccccc1 |  |  |  |  | Inhibition activity call [1]: Active; Activity (BV-2 [2]): Active
Cc1cc(F)cc(Nc2ncc(Nc3cccc(C#N)c3)cc2C(N)=O)c1 | 1210 | 2240 | > 3000 | 530 | 
CCCc1ccc(Nc2cnc(Nc3cc(C)cc(F)c3)c(C(N)=O)c2)cc1 | 1480 | 3310 | > 3000 | 12900 | 
COc1ccc(Nc2cnc(Nc3cc(C)cc(F)c3)c(C(N)=O)c2)c(F)c1 | 960 | 1460 | 1540 | 3160 | 
C[C@@H](Oc1cc(-c2cnn(C3CCNCC3)c2)cnc1N)c1c(Cl)ccc(F)c1Cl [CRIZOTINIB] |  |  |  |  | Activity (BV-2 [26]): Non-toxic
Cc1cc(Nc2ncc(Cl)c(Nc3ccccc3S(=O)(=O)C(C)C)n2)c(OC(C)C)cc1C1CCNCC1 [CERITINIB] |  |  |  |  | Activity (BV-2 [26]): Toxic; Activity (BV-2 [2]): inactive
CN(C(=O)c1cccn(Cc2cccc(F)c2)c1=O)c1ccccc1 |  |  |  |  | Inhibition activity call [1]: Active; Activity (BV-2 [2]): Active
O=C(NCCc1ccccc1)C1CCN(C(=O)c2ccccc2F)CC1 |  |  |  |  | Inhibition activity call [1]: Active; Activity (BV-2 [2]): Active
Cc1cc(F)cc(Nc2ncc(Nc3ccc(C(F)(F)F)cc3)cc2C(N)=O)c1 | 420 | 3780 | 210 | 1420 | 
Cc1cc(F)cc(Nc2ncc(Nc3ccc(F)cc3F)cc2C(N)=O)c1 | 290 | 780 | 150 | 1920 | 
Cc1cc(F)cc(Nc2ncc(Nc3ccc4c(c3)OCO4)cc2C(N)=O)c1 | 660 |  | 160 | 2230 | 
Cc1cc(F)cc(Nc2ncc(Nc3ccc(-c4ccco4)cc3)cc2C(N)=O)c1 | 360 | 1450 | 120 | 650 | 
O=C1c2cccc3cccc(c23)N1Cc1ccc(F)cc1 |  |  |  |  | Inhibition activity call [1]: Active; Activity (BV-2 [2]): Active
